e = 2'-O-(2-methoxyethyl) (MOE); d = 2'-deoxy (DNA)
Assays:
[1] = Plasma cholesterol and triglyceride levels, dose response (Example 9); assay type: in vivo, mice; settings: 50 mg/kg/wk
Experimental: (§1) Another group received subcutaneous injections of control oligonucleotide ISIS 141923 at a dose of 50 mg/kg/week for 6 weeks. One group of mice received subcutaneous injections of PBS for 6 weeks. The PBS-injected group served as the control group to which treatment groups were compared.
G. and Dyer, W. J. Can. J. Biochem. Physiol. 37: 911-917, 1959) and measured with an Olympus clinical analyzer (Hitachi Olympus AU400e, Melville, N.Y.). HDL and LDL cholesterol were individually measured by HPLC. Triglyceride levels were measured with the use of a commercially available triglyceride kit (DCL Triglyceride Reagent; Diagnostic Chemicals Ltd.). The results are presented in Tables 47-51 and are expressed in mg/dL.

[2] = Plasma cholesterol and triglyceride levels in huApoB/huCETP/mLDLr mouse model (Example 7); assay type: in vivo, mice; settings: huApoB+/−huCETP+/−mLDLr+/− mice (Groups B-E), ASO 25 mg/kg s.c. twice/week
Description: The huApoB^+/−huCETP^+/−mLDLr^+/− mice were divided into five groups of 5-7 mice each. […] The saline-injected group served as the control group to which oligonucleotide-treated groups were compared. […] This group served a negative control for the effects of the antisense oligonucleotides against CETP. The groups are further described in Table 27, and are designated letters A-F, by which they will be referred from henceforth.
HDL and LDL cholesterol were individually measured by HPLC. Triglyceride levels were measured on weeks 0, 3 and 6 with the use of a commercially available triglyceride kit (DCL Triglyceride Reagent; Diagnostic Chemicals Ltd.).

CETP protein = assay: Plasma CETP protein by ELISA, dose response (Example 9); assay type: in vivo, human; settings: huCETP transgenic mice, Western diet; s.c. 6 weeks; Dose 50 mg/kg/wk
Experimental: as §1
Plasma CETP protein levels were measured by ELISA (Alpco). The results are expressed as percent inhibition of CETP protein, relative to the PBS control.

[3] = Organ weights (Example 6); assay type: in vivo, mice; settings: 50 mg/kg s.c. twice per week for 6 weeks, end of study
Description: The normal chow-fed mice were divided into three treatment groups. The cholesterol-enriched chow-fed mice were divided into three treatment groups. […] One chow-fed group and one cholesterol-enriched chow-fed group received subcutaneous injections of saline twice weekly for 6 weeks. The saline-injected groups served as the control groups to which the corresponding oligonucleotide-treated groups were compared.

CETP mRNA = assay: Liver CETP mRNA in huApoB/huCETP/mLDLr mouse model for cardiovascular disease (Example 7); assay type: in vivo, human; settings: huApoB+/−huCETP+/−mLDLr+/− mice (Groups B-E); ASO 25 mg/kg s.c. twice per week, nicotinic acid 2 g/kg/day s.c. + 1% in diet, 6 weeks; relative to PBS control (Group A)
Description: The saline-injected group served as the control group to which oligonucleotide-treated groups were compared. […] This group served a negative control for the effects of the antisense oligonucleotides against CETP. The groups are further described in Table 27, and are designated letters A-F, by which they will be referred from henceforth.

Row | Substance | % HDL/total cholesterol ([2]; Week 0) [%] | HDL cholesterol levels ([2]; Week 0) [mg/dL] | LDL cholesterol levels ([2]; Week 0) [mg/dL] | Total cholesterol levels ([2]; Week 0) [mg/dL] | Triglyceride levels ([2]; Week 0) [mg/dL] | % HDL/total cholesterol ([2]; Week 3) [%] | HDL cholesterol levels ([2]; Week 3) [mg/dL] | LDL cholesterol levels ([2]; Week 3) [mg/dL] | Total cholesterol levels ([2]; Week 3) [mg/dL] | Triglyceride levels ([2]; Week 3) [mg/dL] | % HDL/total cholesterol ([2]; Week 6) [%] | HDL cholesterol levels ([2]; Week 6) [mg/dL] | LDL cholesterol levels ([2]; Week 6) [mg/dL] | Total cholesterol levels ([2]; Week 6) [mg/dL] | Triglyceride levels ([2]; Week 6) [mg/dL] | also measured
1 | ISIS 141923: CCTTCCCTGAAGGTTCCTCC, 5-10-5 MOE gapmer, a control oligonucleotide which has no known murine target (sugars from the 5' end e5 d10 e5, backbone and methylation of C not given here) [reference compound] | 25 | 50 | 123 | 201 | 137 | 24 | 55 | 149 | 228 | 177 | 31 | 74 | 150 | 235 | 192 | HDL cholesterol levels ([1]; Week 0): 87 mg/dL; LDL cholesterol levels ([1]; Week 0): 54 mg/dL; Total cholesterol levels ([1]; Week 0): 153 mg/dL; Triglyceride levels ([1]; Week 0): 49 mg/dL; % change in HDL levels compared to total cholesterol ([1]; Week 3): −17%; HDL cholesterol levels ([1]; Week 3): 115 mg/dL; LDL cholesterol levels ([1]; Week 3): 42 mg/dL; Total cholesterol levels ([1]; Week 3): 164 mg/dL; Triglyceride levels ([1]; Week 3): 58 mg/dL; % change in HDL levels compared to total cholesterol ([1]; Week 6): −23%; HDL cholesterol levels ([1]; Week 6): 124 mg/dL; LDL cholesterol levels ([1]; Week 6): 47 mg/dL; Total cholesterol levels ([1]; Week 6): 180 mg/dL; Triglyceride levels ([1]; Week 6): 88 mg/dL; Percent inhibition of plasma CETP protein levels (CETP protein): 7%
2 | ISIS 349511: 5-10-5 MOE gapmer CCCGACCTCCTTGGAGACTT (sugars from the 5' end e5 d10 e5, backbone and methylation of C not given here) | 24 | 49 | 129 | 208 | 145 | 30 | 64 | 126 | 212 | 199 | 35 | 77 | 132 | 223 | 248 | Kidney weight ([3]; Cholesterol chow): 305 mg; Liver weight ([3]; Cholesterol chow): 1.4 g; Spleen weight ([3]; Cholesterol chow): 80 mg; Kidney weight ([3]; Normal chow): 248 mg; Liver weight ([3]; Normal chow): 1.0 g; Spleen weight ([3]; Normal chow): 74 mg; Percent inhibition of liver CETP mRNA expression (CETP mRNA): 70%

— patent US20130053430A1, “MODULATION OF CETP EXPRESSION” (Isis Pharmaceuticals, Inc., priority 2010, published 2013)
